{"source": "paper PMC7827406", "about": "“Structure–Activity Relationship (SAR) Study of Spautin-1 to Entail the Discovery of Novel NEK4 Inhibitors” (International Journal of Molecular Sciences, 2021)", "experiment_in_all_cases": "biochemical", "design_in_all_cases": "Eurofins KinaseProfiler full panel at Km ATP, residual kinase activity (%) relative to DMSO", "key": {"NDR2(h)": {"target": "T1, NDR2(h) (Homo sapiens, UniProt Q9Y2H1)", "T1 construct": "gene STK38L", "T1 sequence (Q9Y2H1 whole entry)": "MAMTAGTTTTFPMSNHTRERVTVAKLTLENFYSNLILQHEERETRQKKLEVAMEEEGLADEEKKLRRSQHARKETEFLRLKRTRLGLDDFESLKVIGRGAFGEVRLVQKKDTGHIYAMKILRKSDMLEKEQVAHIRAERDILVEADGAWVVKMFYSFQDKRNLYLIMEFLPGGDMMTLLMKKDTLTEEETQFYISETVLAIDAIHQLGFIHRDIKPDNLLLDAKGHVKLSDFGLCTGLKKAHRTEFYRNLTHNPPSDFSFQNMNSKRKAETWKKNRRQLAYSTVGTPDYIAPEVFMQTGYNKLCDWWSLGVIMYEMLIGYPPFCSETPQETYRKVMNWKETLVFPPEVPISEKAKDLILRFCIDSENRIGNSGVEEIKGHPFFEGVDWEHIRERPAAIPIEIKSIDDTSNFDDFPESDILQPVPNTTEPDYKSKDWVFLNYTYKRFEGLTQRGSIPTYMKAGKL", "in_short": "(§1)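 Two 10 µM single-concentration screens were run: a competition-binding screen, in which DNA-tagged kinase bound to immobilized ligands was quantified by qPCR, and a radiometric activity panel at Km ATP. Each is expressed as residual kinase activity (%).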"}, "MST2(h)": {"target": "T2, MST2(h) (Homo sapiens, UniProt Q13188)", "T2 construct": "gene STK3", "T2 sequence (Q13188 1-491)": "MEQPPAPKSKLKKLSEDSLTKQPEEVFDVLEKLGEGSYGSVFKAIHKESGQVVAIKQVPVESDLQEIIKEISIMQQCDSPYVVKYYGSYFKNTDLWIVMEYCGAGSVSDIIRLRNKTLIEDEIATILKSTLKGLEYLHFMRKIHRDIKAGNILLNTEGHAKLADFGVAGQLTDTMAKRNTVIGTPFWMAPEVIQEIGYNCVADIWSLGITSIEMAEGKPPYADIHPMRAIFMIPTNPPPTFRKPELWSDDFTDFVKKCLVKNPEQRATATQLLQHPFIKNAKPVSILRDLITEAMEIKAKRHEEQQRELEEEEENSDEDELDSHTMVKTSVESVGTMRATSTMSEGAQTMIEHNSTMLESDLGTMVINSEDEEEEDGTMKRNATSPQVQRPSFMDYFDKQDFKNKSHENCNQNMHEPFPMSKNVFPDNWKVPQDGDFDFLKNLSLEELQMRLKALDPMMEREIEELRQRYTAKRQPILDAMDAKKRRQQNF", "in_short": "as §1"}, "ZAP-70(h)": {"target": "T3, ZAP-70(h) (Homo sapiens, UniProt P43403)", "T3 construct": "gene ZAP70", "T3 sequence (P43403 1-619)": "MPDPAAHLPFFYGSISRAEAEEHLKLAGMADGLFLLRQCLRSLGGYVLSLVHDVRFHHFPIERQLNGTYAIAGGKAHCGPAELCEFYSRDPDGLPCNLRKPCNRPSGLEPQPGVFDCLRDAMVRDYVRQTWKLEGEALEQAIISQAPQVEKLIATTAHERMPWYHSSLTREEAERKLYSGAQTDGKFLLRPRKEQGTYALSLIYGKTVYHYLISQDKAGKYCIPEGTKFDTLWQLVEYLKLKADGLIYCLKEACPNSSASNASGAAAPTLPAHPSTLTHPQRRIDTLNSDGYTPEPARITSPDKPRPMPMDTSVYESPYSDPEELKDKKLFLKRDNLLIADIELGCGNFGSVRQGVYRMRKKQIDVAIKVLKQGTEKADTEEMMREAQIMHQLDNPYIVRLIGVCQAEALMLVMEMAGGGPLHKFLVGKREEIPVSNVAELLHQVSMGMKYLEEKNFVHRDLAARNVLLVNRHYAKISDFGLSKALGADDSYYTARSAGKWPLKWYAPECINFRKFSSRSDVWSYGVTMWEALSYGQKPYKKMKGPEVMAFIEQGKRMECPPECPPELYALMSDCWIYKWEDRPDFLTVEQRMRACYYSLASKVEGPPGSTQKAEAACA", "in_short": "as §1"}, "TBK1(h)": {"target": "T4, TBK1(h) (Homo sapiens, UniProt Q9UHD2)", "T4 sequence (Q9UHD2 1-729)": "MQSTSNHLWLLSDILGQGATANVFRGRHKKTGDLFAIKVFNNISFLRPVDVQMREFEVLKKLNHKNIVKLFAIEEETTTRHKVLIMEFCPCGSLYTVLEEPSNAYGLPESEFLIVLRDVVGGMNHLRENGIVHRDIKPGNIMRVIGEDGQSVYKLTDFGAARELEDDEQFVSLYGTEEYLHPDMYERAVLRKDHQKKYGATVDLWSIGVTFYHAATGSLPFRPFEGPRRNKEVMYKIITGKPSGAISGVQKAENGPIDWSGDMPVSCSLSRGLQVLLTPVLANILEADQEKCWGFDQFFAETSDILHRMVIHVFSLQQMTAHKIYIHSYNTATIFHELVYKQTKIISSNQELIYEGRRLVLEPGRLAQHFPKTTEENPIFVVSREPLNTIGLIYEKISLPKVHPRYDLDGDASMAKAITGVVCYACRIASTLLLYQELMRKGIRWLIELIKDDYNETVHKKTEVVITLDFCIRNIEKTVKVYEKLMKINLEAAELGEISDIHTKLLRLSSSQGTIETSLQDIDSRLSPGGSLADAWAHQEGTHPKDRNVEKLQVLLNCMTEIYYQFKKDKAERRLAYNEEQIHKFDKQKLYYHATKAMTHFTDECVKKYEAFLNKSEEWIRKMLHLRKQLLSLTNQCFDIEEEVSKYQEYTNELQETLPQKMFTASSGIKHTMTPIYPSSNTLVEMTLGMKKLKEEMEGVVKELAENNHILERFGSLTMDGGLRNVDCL", "in_short": "as §1"}, "[1]": {"settings": "read-out: Residual activity (%) Spautin-1 5aa"}, "[2]": {"settings": "read-out: Residual activity (%) 5as"}, "[3]": {"settings": "read-out: Residual activity (%) 5at"}, "[4]": {"settings": "read-out: Residual activity (%) 5ay"}}, "note": "Where two headings read alike, the source gives them in different places."}
{"smiles": "Fc1ccc(CNc2ncnc3ccc(F)cc23)cc1", "note": "[5aa, 6-Fluoro-N-(4-fluorobenzyl)-4-Quinazolinamine]", "values": [{"measurement": "remaining activity at 10 µM", "setting": "NDR2(h); [1]", "result": 120, "unit": "%"}, {"measurement": "remaining activity at 10 µM", "setting": "MST2(h); [1]", "result": 98, "unit": "%"}, {"measurement": "remaining activity at 10 µM", "setting": "ZAP-70(h); [1]", "result": 146, "unit": "%"}, {"measurement": "remaining activity at 10 µM", "setting": "TBK1(h); [1]", "result": 126, "unit": "%"}]}
{"smiles": "Fc1ccc(CCNc2ncnc3ccc(F)cc23)cc1", "note": "[5as, 6-Fluoro-N-[2-(4-Fluorophenyl)Ethyl]-4-Quinazolinamine]", "values": [{"measurement": "remaining activity at 10 µM", "setting": "NDR2(h); [2]", "result": 99, "unit": "%"}, {"measurement": "remaining activity at 10 µM", "setting": "MST2(h); [2]", "result": 112, "unit": "%"}, {"measurement": "remaining activity at 10 µM", "setting": "ZAP-70(h); [2]", "result": 146, "unit": "%"}, {"measurement": "remaining activity at 10 µM", "setting": "TBK1(h); [2]", "result": 108, "unit": "%"}]}
{"smiles": "Fc1ccc2ncnc(NCCc3ccc(Cl)cc3)c2c1", "note": "[5at, N-[2-(4-Chlorophenyl)Ethyl]-6-Fluoro-4-Quinazolinamine]", "values": [{"measurement": "remaining activity at 10 µM", "setting": "NDR2(h); [3]", "result": 115, "unit": "%"}, {"measurement": "remaining activity at 10 µM", "setting": "MST2(h); [3]", "result": 81, "unit": "%"}, {"measurement": "remaining activity at 10 µM", "setting": "ZAP-70(h); [3]", "result": 130, "unit": "%"}, {"measurement": "remaining activity at 10 µM", "setting": "TBK1(h); [3]", "result": 108, "unit": "%"}]}
{"smiles": "COc1ccc2ncnc(Nc3cccc(F)c3)c2c1", "note": "[5ay, N-(3-Fluorophenyl)-6-Methoxy-4-Quinazolinamine]", "values": [{"measurement": "remaining activity at 10 µM", "setting": "NDR2(h); [4]", "result": 103, "unit": "%"}, {"measurement": "remaining activity at 10 µM", "setting": "MST2(h); [4]", "result": 102, "unit": "%"}, {"measurement": "remaining activity at 10 µM", "setting": "ZAP-70(h); [4]", "result": 113, "unit": "%"}, {"measurement": "remaining activity at 10 µM", "setting": "TBK1(h); [4]", "result": 117, "unit": "%"}]}
